Settings: 509.85 K, Fluid (supercritical or subcritical phases), Coaxial cylinder method

CCCCCC [hexane]
Settings	thermal conductivity [W/m/K]
2965 kPa	0.05466
2970 kPa	0.05502
2975 kPa	0.05557
2980 kPa	0.05557
2985 kPa	0.05595
2990 kPa	0.05595
2995 kPa	0.05651
3000 kPa	0.0569
3005 kPa	0.05749
3010 kPa	0.05788
3015 kPa	0.05829
3020 kPa	0.05869
3025 kPa	0.05975
3030 kPa	0.05975
3035 kPa	0.05975
3040 kPa	0.06085
3045 kPa	0.0613
3050 kPa	0.0618
3055 kPa	0.06256
3060 kPa	0.06305
3065 kPa	0.06429
3070 kPa	0.06507
3080 kPa	0.06696
3085 kPa	0.06809
3090 kPa	0.06955
3095 kPa	0.07139
3100 kPa	0.07333
3105 kPa	0.07573
3110 kPa	0.07753
3115 kPa	0.08101
3120 kPa	0.08569
3125 kPa	0.08932
3130 kPa	0.09098
3135 kPa	0.09203
3140 kPa	0.08826
3145 kPa	0.08512
3150 kPa	0.0829
3155 kPa	0.08149
3160 kPa	0.07984
3170 kPa	0.07755
3180 kPa	0.07646
3190 kPa	0.07505
3200 kPa	0.07436
3210 kPa	0.07368
3220 kPa	0.07319
3230 kPa	0.07264
3240 kPa	0.07251
3250 kPa	0.07211
3260 kPa	0.07181
3270 kPa	0.07177
3280 kPa	0.07145
3290 kPa	0.07134
3300 kPa	0.07091
3310 kPa	0.07096
3320 kPa	0.07054
3330 kPa	0.07035
3340 kPa	0.06992
3390 kPa	0.06989
3400 kPa	0.06989
3450 kPa	0.06947
3500 kPa	0.06961
3600 kPa	0.06975
3800 kPa	0.07031
4000 kPa	0.07061
4200 kPa	0.07105
4400 kPa	0.07134
4600 kPa	0.07179
4800 kPa	0.07215
5000 kPa	0.07254
5200 kPa	0.07285
5400 kPa	0.07315
5600 kPa	0.07355
5800 kPa	0.07393
6000 kPa	0.07421
6200 kPa	0.07453
6400 kPa	0.07484
6600 kPa	0.07514
6800 kPa	0.07543
7000 kPa	0.0757
7200 kPa	0.07596
7400 kPa	0.07619
7600 kPa	0.07646
